Results from patent US6864051B1, “Plant gene constructs and their use” (priority 1997, dated 2005).

Key:
[1] = tested on: tobacco plants overexpressing ATH1; experiment: Foliar application (spraying) of GA3 to tobacco plants overexpressing ATH1; format: in vivo, Nicotiana tabacum; conditions: 35S::ATH1 tobacco; for late-flowering phenotype of ATH1 overexpressing tobacco after GA spraying: foliar GA3 spraying, data not shown
Method: Tobacco plants (Nicotiana tabacum L. cv. Samsun NN) were transformed using the leaf disk procedure (Horsch et al., 1985). Transgenic plants were selected on MS-medium (Murashige and Skoog, 1962) containing […] kanamycin and 2% sucrose. After transfer to soil plants were grown in a greenhouse at 22° C. under a light regime of 16 hours daylight when necessary supplemented with artificial light. The effects of gibberellin (GA) were tested by foliar applications (spraying) of 100 mM GA3 in a solution containing 100 ml/l of Triton X-100. Control plants were sprayed with a solution containing only 100 ml/l of Triton X-100. Spraying began 60 days after sowing when the wild-type plants were approximately 5 cm tall and the 35S CaMV::ATH1 plants approximately 2.5 cm tall, and continued at 3- to 4-day intervals. Plant height was measured every 3 to 4 days and this will be continued until the onset of flowering, as determined by the appearance of flower primordia.

35S::ATH1 Arabidopsis = experiment: Rescue of 35S::ATH1 Arabidopsis seeds/seedlings on growth medium containing GA3; format: in vivo, Arabidopsis thaliana; conditions: growth medium containing 10^-5 M GA3 for three days
Source text: In order to gain more insight into the role of ATH1 in plant development, the full length ATH1 cDNA was fused to the constitutive 35S promoter of cauliflower mosaic virus and the 35S::ATH1 chimeric gene was transformed into Arabidopsis via the vacuum infiltration method. Six independent primary transformants could be obtained and all transgenic lines were selfed. From each independent transgenic line 40 individual seeds were germinated and scored for altered phenotypes compared to wild type plants. […] Once rescued and transferred to soil plants developed normally, except for a late flowering phenotype. Under short day conditions transgenic plants form much more rosette leaves (vegetative leaves) than wild type plants (about 40 rosette leaves and 100 days after germination, and plants are still not flowering, compared to about 30 rosette leaves in wild-type plants until flowering). Under LD conditions in most of these plants a partial generative to vegetative reversion occurs, shown by the formation of aerial rosettes (vegetative leaves) on the inflorescence stem. Plants (C24 ecotype) containing an extra copy of the ATH1 cDNA under control of the Hsp18.2 heat shock promoter (HspHlB plants) also show a late-flowering phenotype. […]

C=C1C[C@]23C[C@@]1(O)CC[C@H]2[C@@]12C=C[C@H](O)[C@@](C)(C(=O)O1)[C@H]2[C@@H]3C(=O)O [GA3, gibberellin A3]
late-flowering phenotype of ATH1 overexpressing tobacco after GA spraying [1]: holds also true
late-flowering phenotype of ATH1 overexpressing tobacco after GA spraying ([1]; listed as GA): rescue
stem length (plant height) of ATH1 overexpressing tobacco after GA3 ([1]; spraying of 100 mM GA3 at three to four day intervals): complete restoration of the wild-type stem length
poor germination and arrest in seedling stage of 35S::ATH1 Arabidopsis (35S::ATH1 Arabidopsis): could be overcome
